Target: T1, Angiotensin II receptor (AT-1) type-1 (Rattus norvegicus, UniProt P29089+P25095)
T1 sequence (P29089 whole entry): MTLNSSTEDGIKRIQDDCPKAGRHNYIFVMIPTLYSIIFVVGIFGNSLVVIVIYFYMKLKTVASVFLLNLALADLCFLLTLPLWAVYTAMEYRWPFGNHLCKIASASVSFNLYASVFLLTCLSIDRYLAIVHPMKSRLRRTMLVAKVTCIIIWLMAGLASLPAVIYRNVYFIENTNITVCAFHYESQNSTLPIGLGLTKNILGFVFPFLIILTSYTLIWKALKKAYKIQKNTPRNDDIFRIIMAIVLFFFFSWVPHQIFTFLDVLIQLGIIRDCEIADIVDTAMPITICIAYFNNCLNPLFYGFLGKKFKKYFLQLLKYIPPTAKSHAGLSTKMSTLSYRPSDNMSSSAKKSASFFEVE
T1 sequence (P25095 whole entry): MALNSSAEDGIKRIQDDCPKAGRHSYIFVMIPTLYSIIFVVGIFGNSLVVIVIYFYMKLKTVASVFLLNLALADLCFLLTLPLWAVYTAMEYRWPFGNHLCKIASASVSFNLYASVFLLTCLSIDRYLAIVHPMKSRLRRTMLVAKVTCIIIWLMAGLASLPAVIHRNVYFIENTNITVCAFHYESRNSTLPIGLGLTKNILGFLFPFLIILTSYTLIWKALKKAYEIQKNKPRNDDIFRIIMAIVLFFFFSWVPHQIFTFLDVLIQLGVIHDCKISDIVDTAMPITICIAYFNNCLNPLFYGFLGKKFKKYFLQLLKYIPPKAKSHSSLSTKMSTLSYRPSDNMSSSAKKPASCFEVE
Test: Displacement of [125I]-angiotensin 2 from angiotensin AT1 receptor in Rattus norvegicus (rat) uterine membranes

SMILES | IC50 | pIC50
CCCCc1nn(C(CC(=O)OCC)C(=O)c2ccccc2)c(=O)n1Cc1ccc(-c2ccccc2-c2nn[nH]n2)cc1 (stereo unspecified) | 36 nM | 7.444
CCCCCn1nc(CCCC)n(Cc2ccc(-c3ccccc3-c3nn[nH]n3)cc2)c1=O | 5.6 nM | 8.252
CCCCc1nn(CC(=O)OCC)c(=O)n1Cc1ccc(-c2ccccc2-c2nn[nH]n2)cc1 | 9 nM | 8.046
CCCCc1nn(CCCCC(=O)O)c(=O)n1Cc1ccc(-c2ccccc2-c2nn[nH]n2)cc1 | 12 nM | 7.921
CCCCc1nn(Cc2ccc3ccccc3c2)c(=O)n1Cc1ccc(-c2ccccc2-c2nn[nH]n2)cc1 | 280 nM | 6.553
CCCCc1nn(CCCC)c(=O)n1Cc1ccc(-c2ccccc2C(=O)O)cc1 | 101 nM | 6.996
CCCCc1nnc(O)n1Cc1ccc(-c2ccccc2-c2nn[nH]n2)cc1 | 42 nM | 7.377
CCCCc1nn(CCC)c(=O)n1Cc1ccc(-c2ccccc2-c2nn[nH]n2)cc1 | 15 nM | 7.824
CCCCc1nn(Cc2ccccc2)c(=O)n1Cc1ccc(-c2ccccc2-c2nn[nH]n2)cc1 | 16 nM | 7.796
CCCCc1nnc(O)n1Cc1ccc(-c2ccccc2C(=O)O)cc1 | 1500 nM | 5.824
CCCCc1nn(CC(OCC(=O)OCC)c2ccccc2)c(=O)n1Cc1ccc(-c2ccccc2-c2nn[nH]n2)cc1 (stereo unspecified) | 180 nM | 6.745
CCCCc1nn(CC(=O)OC(C)(C)C)c(=O)n1Cc1ccc(-c2ccccc2-c2nn[nH]n2)cc1 | 16 nM | 7.796
CCCCc1nn(CCCCCC(=O)O)c(=O)n1Cc1ccc(-c2ccccc2-c2nn[nH]n2)cc1 | 17 nM | 7.77
CCCCc1nn(CC(=O)O)c(=O)n1Cc1ccc(-c2ccccc2-c2nn[nH]n2)cc1 | 91 nM | 7.041
CCCCc1nn(CCCCCC(=O)OCC)c(=O)n1Cc1ccc(-c2ccccc2-c2nn[nH]n2)cc1 | 9.8 nM | 8.009
CCCCc1nn(CCCc2ccccc2)c(=O)n1Cc1ccc(-c2ccccc2-c2nn[nH]n2)cc1 | 18 nM | 7.745
CCCCCCCCn1nc(CCCC)n(Cc2ccc(-c3ccccc3-c3nn[nH]n3)cc2)c1=O | 170 nM | 6.77

SMILES | IC50 | pIC50
CCCCc1nn(CC(OCCC)c2ccccc2)c(=O)n1Cc1ccc(-c2ccccc2-c2nn[nH]n2)cc1 (stereo unspecified) | 45 nM | 7.347
CCCCc1nn(C(C)CC)c(=O)n1Cc1ccc(-c2ccccc2-c2nn[nH]n2)cc1 (stereo unspecified) | 10 nM | 8
CCCCc1nn(CC(OCC(=O)O)c2ccccc2)c(=O)n1Cc1ccc(-c2ccccc2-c2nn[nH]n2)cc1 (stereo unspecified) | 30 nM | 7.523
CCCCc1nn(CCc2ccccc2)c(=O)n1Cc1ccc(-c2ccccc2-c2nn[nH]n2)cc1 | 3.1 nM | 8.509
CCCCc1nn(CC(O)c2ccccc2)c(=O)n1Cc1ccc(-c2ccccc2-c2nn[nH]n2)cc1 (stereo unspecified) | 3.6 nM | 8.444
CCCCc1nn(CC(O)c2cc(OC)ccc2OC)c(=O)n1Cc1ccc(-c2ccccc2-c2nn[nH]n2)cc1 (stereo unspecified) | 22 nM | 7.658
CCCCc1nn(CCC2CCCCC2)c(=O)n1Cc1ccc(-c2ccccc2-c2nn[nH]n2)cc1 | 18 nM | 7.745
CCCCc1nn(CCC(C)CC(C)(C)C)c(=O)n1Cc1ccc(-c2ccccc2-c2nn[nH]n2)cc1 (stereo unspecified) | 35 nM | 7.456
CCCCc1nn(CC(=O)c2cc(OC)ccc2OC)c(=O)n1Cc1ccc(-c2ccccc2-c2nn[nH]n2)cc1 | 21 nM | 7.678
CCCCc1nn(C(Cc2ccccc2)C(=O)c2ccccc2)c(=O)n1Cc1ccc(-c2ccccc2-c2nn[nH]n2)cc1 (stereo unspecified) | 5800 nM | 5.237
CCCCc1nn(CC(=O)C23CC4CC(CC(C4)C2)C3)c(=O)n1Cc1ccc(-c2ccccc2-c2nn[nH]n2)cc1 | 25 nM | 7.602
CCCCc1nn(CC(OCc2ccccc2)c2ccccc2)c(=O)n1Cc1ccc(-c2ccccc2-c2nn[nH]n2)cc1 (stereo unspecified) | 280 nM | 6.553
CCCCc1nn(CC(OCC)c2ccccc2)c(=O)n1Cc1ccc(-c2ccccc2-c2nn[nH]n2)cc1 (stereo unspecified) | 15 nM | 7.824
CCCCc1nn(C(C)(C)C(=O)c2ccccc2)c(=O)n1Cc1ccc(-c2ccccc2-c2nn[nH]n2)cc1 | 43 nM | 7.367
CCCCCCn1nc(CCCC)n(Cc2ccc(-c3ccccc3-c3nn[nH]n3)cc2)c1=O | 8.7 nM | 8.06
CCCCc1nn(CC(OC)c2ccccc2)c(=O)n1Cc1ccc(-c2ccccc2-c2nn[nH]n2)cc1 (stereo unspecified) | 12 nM | 7.921
